How the values were obtained:
Assay type in all cases: cell-based
Settings in all cases: for Activity of the biocides determined 1 week after germ addition, week 1: week 1, polymer emulsion pH 6.5; for Activity of the biocides determined 1 week after germ addition, week 2: week 2, polymer emulsion pH 6.5; for Activity of the biocides determined 1 week after germ addition, week 3: week 3, polymer emulsion pH 6.5; for Activity of the biocides determined 1 week after germ addition, week 4: week 4, polymer emulsion pH 6.5; for Activity of the biocides determined 1 week after germ addition, week 5: week 5, polymer emulsion pH 6.5; for Activity of the biocides determined 1 week after germ addition, week 6: week 6, polymer emulsion pH 6.5
[1] = test system: Yeasts: Candida albicans and Rhodotorula rubra; assay: Microbiological stress test, preservation of a polymer emulsion: yeasts
Source text: (§1) The preserving effect of an inventive composition comprising DBDCB and ZPT in a polymer emulsion (acrylate-based, pH=6.5) was investigated using a microbiological stress test. The microbiological stress test examines the susceptibility of water-based systems to microbial attack and the effect of preservatives. To this end, the preservatives are incorporated in defined concentrations into the water-based systems. […] Having knowledge of the microorganism populations prevalent in polymer emulsions and dispersions the experiment employed a mixture of the following microorganism types for testing: Yeasts: Candida albicans and Rhodotorula rubra.

[2] = test system: Molds: Acremonium strictum, Aspergillus niger and Geotrichum candidu; assay: Microbiological stress test, preservation of a polymer emulsion: molds
Source text: as §1, with “Molds: Acremonium strictum, Aspergillus niger” for “Yeasts: Candida albicans”, “Geotrichum candidu.” for “Rhodotorula rubra.”

[3] = test system: Bacteria: Escherichia coli, Pseudomonas aeruginosa and Staphylococcus aureus; assay: Microbiological stress test, preservation of a polymer emulsion: bacteria
Source text: as §1, with “Bacteria: Escherichia coli, Pseudomonas aeruginosa” for “Yeasts: Candida albicans”, “Staphylococcus aureus.” for “Rhodotorula rubra.”

## N#CCCC(Br)(C#N)CBr (stereo not drawn) [DBDCB, 1,2-Dibromo-2,4-dicyanobutane]
[1]; 0.025 wt % biocide added
  Activity of the biocides determined 1 week after germ addition, week 1: 0 (no reduction or only a minor reduction of the microbe level is observed (residual level of at least 10^5 bacteria/10^4 mold/yeast cells per g) (score of 0=poor))
  Activity of the biocides determined 1 week after germ addition, week 2: 0 (no reduction or only a minor reduction of the microbe level is observed (residual level of at least 10^5 bacteria/10^4 mold/yeast cells per g) (score of 0=poor))
  Activity of the biocides determined 1 week after germ addition, week 3: 0 (no reduction or only a minor reduction of the microbe level is observed (residual level of at least 10^5 bacteria/10^4 mold/yeast cells per g) (score of 0=poor))
  Activity of the biocides determined 1 week after germ addition, week 4: 0 (no reduction or only a minor reduction of the microbe level is observed (residual level of at least 10^5 bacteria/10^4 mold/yeast cells per g) (score of 0=poor))
  Activity of the biocides determined 1 week after germ addition, week 5: 0 (no reduction or only a minor reduction of the microbe level is observed (residual level of at least 10^5 bacteria/10^4 mold/yeast cells per g) (score of 0=poor))
  Activity of the biocides determined 1 week after germ addition, week 6: 0 (no reduction or only a minor reduction of the microbe level is observed (residual level of at least 10^5 bacteria/10^4 mold/yeast cells per g) (score of 0=poor))
[1]; 0.05 wt % biocide added
  Activity of the biocides determined 1 week after germ addition, week 1: 0 (no reduction or only a minor reduction of the microbe level is observed (residual level of at least 10^5 bacteria/10^4 mold/yeast cells per g) (score of 0=poor))
  Activity of the biocides determined 1 week after germ addition, week 2: 0 (no reduction or only a minor reduction of the microbe level is observed (residual level of at least 10^5 bacteria/10^4 mold/yeast cells per g) (score of 0=poor))
  Activity of the biocides determined 1 week after germ addition, week 3: 0 (no reduction or only a minor reduction of the microbe level is observed (residual level of at least 10^5 bacteria/10^4 mold/yeast cells per g) (score of 0=poor))
  Activity of the biocides determined 1 week after germ addition, week 4: 0 (no reduction or only a minor reduction of the microbe level is observed (residual level of at least 10^5 bacteria/10^4 mold/yeast cells per g) (score of 0=poor))
  Activity of the biocides determined 1 week after germ addition, week 5: 0 (no reduction or only a minor reduction of the microbe level is observed (residual level of at least 10^5 bacteria/10^4 mold/yeast cells per g) (score of 0=poor))
  Activity of the biocides determined 1 week after germ addition, week 6: 0 (no reduction or only a minor reduction of the microbe level is observed (residual level of at least 10^5 bacteria/10^4 mold/yeast cells per g) (score of 0=poor))
[2]; 0.025 wt % biocide added
  Activity of the biocides determined 1 week after germ addition, week 1: 0 (no reduction or only a minor reduction of the microbe level is observed (residual level of at least 10^5 bacteria/10^4 mold/yeast cells per g) (score of 0=poor))
  Activity of the biocides determined 1 week after germ addition, week 2: 0 (no reduction or only a minor reduction of the microbe level is observed (residual level of at least 10^5 bacteria/10^4 mold/yeast cells per g) (score of 0=poor))
  Activity of the biocides determined 1 week after germ addition, week 3: 0 (no reduction or only a minor reduction of the microbe level is observed (residual level of at least 10^5 bacteria/10^4 mold/yeast cells per g) (score of 0=poor))
  Activity of the biocides determined 1 week after germ addition, week 4: 0 (no reduction or only a minor reduction of the microbe level is observed (residual level of at least 10^5 bacteria/10^4 mold/yeast cells per g) (score of 0=poor))
  Activity of the biocides determined 1 week after germ addition, week 5: 0 (no reduction or only a minor reduction of the microbe level is observed (residual level of at least 10^5 bacteria/10^4 mold/yeast cells per g) (score of 0=poor))
  Activity of the biocides determined 1 week after germ addition, week 6: 0 (no reduction or only a minor reduction of the microbe level is observed (residual level of at least 10^5 bacteria/10^4 mold/yeast cells per g) (score of 0=poor))
[2]; 0.05 wt % biocide added
  Activity of the biocides determined 1 week after germ addition, week 1: 0 (no reduction or only a minor reduction of the microbe level is observed (residual level of at least 10^5 bacteria/10^4 mold/yeast cells per g) (score of 0=poor))
  Activity of the biocides determined 1 week after germ addition, week 2: 0 (no reduction or only a minor reduction of the microbe level is observed (residual level of at least 10^5 bacteria/10^4 mold/yeast cells per g) (score of 0=poor))
  Activity of the biocides determined 1 week after germ addition, week 3: 0 (no reduction or only a minor reduction of the microbe level is observed (residual level of at least 10^5 bacteria/10^4 mold/yeast cells per g) (score of 0=poor))
  Activity of the biocides determined 1 week after germ addition, week 4: 0 (no reduction or only a minor reduction of the microbe level is observed (residual level of at least 10^5 bacteria/10^4 mold/yeast cells per g) (score of 0=poor))
  Activity of the biocides determined 1 week after germ addition, week 5: 0 (no reduction or only a minor reduction of the microbe level is observed (residual level of at least 10^5 bacteria/10^4 mold/yeast cells per g) (score of 0=poor))
  Activity of the biocides determined 1 week after germ addition, week 6: 0 (no reduction or only a minor reduction of the microbe level is observed (residual level of at least 10^5 bacteria/10^4 mold/yeast cells per g) (score of 0=poor))
[3]; 0.025 wt % biocide added
  Activity of the biocides determined 1 week after germ addition, week 1: 0 (no reduction or only a minor reduction of the microbe level is observed (residual level of at least 10^5 bacteria/10^4 mold/yeast cells per g) (score of 0=poor))
  Activity of the biocides determined 1 week after germ addition, week 2: 0 (no reduction or only a minor reduction of the microbe level is observed (residual level of at least 10^5 bacteria/10^4 mold/yeast cells per g) (score of 0=poor))
  Activity of the biocides determined 1 week after germ addition, week 3: 0 (no reduction or only a minor reduction of the microbe level is observed (residual level of at least 10^5 bacteria/10^4 mold/yeast cells per g) (score of 0=poor))
  Activity of the biocides determined 1 week after germ addition, week 4: 0 (no reduction or only a minor reduction of the microbe level is observed (residual level of at least 10^5 bacteria/10^4 mold/yeast cells per g) (score of 0=poor))
  Activity of the biocides determined 1 week after germ addition, week 5: 0 (no reduction or only a minor reduction of the microbe level is observed (residual level of at least 10^5 bacteria/10^4 mold/yeast cells per g) (score of 0=poor))
  Activity of the biocides determined 1 week after germ addition, week 6: 0 (no reduction or only a minor reduction of the microbe level is observed (residual level of at least 10^5 bacteria/10^4 mold/yeast cells per g) (score of 0=poor))
[3]; 0.05 wt % biocide added
  Activity of the biocides determined 1 week after germ addition, week 1: 0 (no reduction or only a minor reduction of the microbe level is observed (residual level of at least 10^5 bacteria/10^4 mold/yeast cells per g) (score of 0=poor))
  Activity of the biocides determined 1 week after germ addition, week 2: 0 (no reduction or only a minor reduction of the microbe level is observed (residual level of at least 10^5 bacteria/10^4 mold/yeast cells per g) (score of 0=poor))
  Activity of the biocides determined 1 week after germ addition, week 3: 0 (no reduction or only a minor reduction of the microbe level is observed (residual level of at least 10^5 bacteria/10^4 mold/yeast cells per g) (score of 0=poor))
  Activity of the biocides determined 1 week after germ addition, week 4: 0 (no reduction or only a minor reduction of the microbe level is observed (residual level of at least 10^5 bacteria/10^4 mold/yeast cells per g) (score of 0=poor))
  Activity of the biocides determined 1 week after germ addition, week 5: 0 (no reduction or only a minor reduction of the microbe level is observed (residual level of at least 10^5 bacteria/10^4 mold/yeast cells per g) (score of 0=poor))
  Activity of the biocides determined 1 week after germ addition, week 6: 0 (no reduction or only a minor reduction of the microbe level is observed (residual level of at least 10^5 bacteria/10^4 mold/yeast cells per g) (score of 0=poor))

Reference: patent US20190269129A1, “COMPOSITION CONTAINING 1,2-DIBROMO-2,4-DICYANOBUTANE (DBDCB) AND ZINC PYRITHIONE (ZPT)” (LANXESS Deutschland GmbH, priority 2014, published 2019)
